Data as given in PubChem BioAssay (NCI).
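Each compound was tested at five concentrations against cells in 96-well plates for 48 hours. The concentration for full growth arrest is given as TGI.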

Key:
Test in all cases: inhibition of tumour cell growth, NCI panel, 48 h
[1] = test system: MALME-3M melanoma
[2] = test system: HL-60(TB) leukemia
[3] = test system: COLO 205 colon
[4] = test system: NCI-H460 lung
[5] = test system: HT29 colon
[6] = test system: HOP-92 NSCLC
[7] = test system: SNB-78 CNS
[8] = test system: DMS 273 small cell lung
[9] = test system: SN12C renal
[10] = test system: SNB-75 CNS
[11] = test system: OVCAR-5 ovarian
[12] = test system: HOP-18 NSCLC
[13] = test system: MOLT-4 leukemia
[14] = test system: NCI-H226 lung
[15] = test system: TK-10 renal
[16] = test system: RXF 393 renal
[17] = test system: NCI-H23 lung
[18] = test system: OVCAR-3 ovarian
[19] = test system: 786-0 renal
[20] = test system: XF 498 CNS
[21] = test system: SK-MEL-5 melanoma
[22] = test system: SK-MEL-28 melanoma
[23] = test system: HCC-2998 colon
[24] = test system: SW-620 colon
[25] = test system: M14 melanoma
[26] = test system: LOX IMVI melanoma
[27] = test system: KM20L2 colon
[28] = test system: UACC-257 melanoma
[29] = test system: CAKI-1 renal
[30] = test system: OVCAR-8 ovarian
[31] = test system: UO-31 renal
[32] = test system: HOP-62 NSCLC
[33] = test system: RPMI-8226 leukemia
[34] = test system: CCRF-CEM leukemia
[35] = test system: OVCAR-4 ovarian
[36] = test system: LXFL 529 NSCLC
[37] = test system: EKVX NSCLC
[38] = test system: A549 NSCLC
[39] = test system: NCI-H522 lung
[40] = test system: DLD-1 colon
[41] = test system: SF-268 CNS
[42] = test system: K-562 leukemia
[43] = test system: SF-295 CNS
[44] = test system: SK-MEL-2 melanoma
[45] = test system: HCT-15 colon
[46] = test system: SNB-19 CNS
[47] = test system: KM12 colon
[48] = test system: ACHN renal
[49] = test system: SK-OV-3 ovarian
[50] = test system: SR leukemia
[51] = test system: RXF-631 renal
[52] = test system: SF-539 CNS
[53] = test system: A498 renal
[54] = test system: DMS 114 small cell lung
[55] = test system: UACC-62 melanoma
[56] = test system: M19-MEL melanoma
[57] = test system: IGROV1 ovarian
[58] = test system: U251 CNS
[59] = test system: HCT-116 colon

For `N#CC1(c2nc3ccccc3o2)C(=O)C(=O)N(c2ccc(Cl)c(Cl)c2)C(=O)C1=O`, the TGI [1] was greater than 100 µM, the TGI [2] was greater than 100 µM and the TGI [3] was greater than 100 µM. It also gave a TGI [4] greater than 100 µM, a TGI [5] greater than 100 µM and a TGI [6] greater than 100 µM. The TGI [7] was greater than 100 µM, the TGI [8] was greater than 100 µM and the TGI [9] was greater than 100 µM. It also gave a TGI [10] greater than 100 µM, a TGI [11] greater than 100 µM and a TGI [12] greater than 100 µM. For the same compound, the TGI [13] was greater than 100 µM, the TGI [14] was greater than 100 µM and the TGI [15] was greater than 100 µM. For the same compound, the TGI [16] was greater than 100 µM, the TGI [17] was greater than 100 µM and the TGI [18] was greater than 100 µM. It also gave a TGI [19] greater than 100 µM, a TGI [20] greater than 100 µM and a TGI [21] greater than 100 µM. It also gave a TGI [22] greater than 100 µM, a TGI [23] greater than 100 µM and a TGI [24] greater than 100 µM. The TGI [25] was greater than 100 µM, the TGI [26] was greater than 100 µM and the TGI [27] was greater than 100 µM. The TGI [28] was greater than 100 µM, the TGI [29] was greater than 100 µM and the TGI [30] was greater than 100 µM. The TGI [31] was greater than 100 µM, the TGI [32] was greater than 100 µM and the TGI [33] was greater than 100 µM. For the same compound, the TGI [34] was greater than 100 µM, the TGI [35] was greater than 100 µM and the TGI [36] was greater than 100 µM. The TGI [37] was greater than 100 µM, the TGI [38] was greater than 100 µM and the TGI [39] was greater than 100 µM. For the same compound, the TGI [40] was greater than 100 µM, the TGI [41] was greater than 100 µM and the TGI [42] was greater than 100 µM. It also gave a TGI [43] greater than 100 µM, a TGI [44] greater than 100 µM and a TGI [45] greater than 100 µM. For the same compound, the TGI [46] was greater than 100 µM, the TGI [47] was greater than 100 µM and the TGI [48] was greater than 100 µM.
`CCN(CC)C(=S)N/N=C(\C)c1ccccc1O` gave a TGI [49] of 79 µM, a TGI [1] greater than 100 µM and a TGI [2] greater than 100 µM. For the same compound, the TGI [3] was greater than 100 µM, the TGI [4] was 97.4 µM and the TGI [5] was 48 µM. For the same compound, the TGI [50] was greater than 100 µM, the TGI [51] was greater than 100 µM and the TGI [52] was 54.4 µM. It also gave a TGI [7] greater than 100 µM, a TGI [53] greater than 100 µM and a TGI [8] greater than 100 µM. The TGI [9] was greater than 100 µM, the TGI [10] was greater than 100 µM and the TGI [54] was greater than 100 µM. The TGI [12] was 86.5 µM, the TGI [55] was greater than 100 µM and the TGI [13] was greater than 100 µM. For the same compound, the TGI [14] was 56.8 µM, the TGI [15] was greater than 100 µM and the TGI [16] was greater than 100 µM. It also gave a TGI [17] greater than 100 µM, a TGI [56] greater than 100 µM and a TGI [18] greater than 100 µM. It also gave a TGI [57] greater than 100 µM, a TGI [19] greater than 100 µM and a TGI [21] of 51.9 µM. For the same compound, the TGI [22] was greater than 100 µM, the TGI [23] was greater than 100 µM and the TGI [24] was greater than 100 µM. The TGI [25] was 51.3 µM, the TGI [58] was 89 µM and the TGI [26] was 77.4 µM. The TGI [27] was 59.2 µM, the TGI [28] was greater than 100 µM and the TGI [29] was 55.3 µM. It also gave a TGI [30] greater than 100 µM, a TGI [31] of 61.9 µM and a TGI [32] greater than 100 µM. It also gave a TGI [33] greater than 100 µM, a TGI [34] of 78 µM and a TGI [35] greater than 100 µM. For the same compound, the TGI [36] was greater than 100 µM, the TGI [37] was greater than 100 µM and the TGI [38] was 43.4 µM. It also gave a TGI [39] of 33 µM, a TGI [40] greater than 100 µM and a TGI [41] greater than 100 µM. It also gave a TGI [42] greater than 100 µM, a TGI [43] greater than 100 µM and a TGI [44] of 80.7 µM. For the same compound, the TGI [45] was greater than 100 µM, the TGI [46] was greater than 100 µM and the TGI [47] was greater than 100 µM. For the same compound, the TGI [48] was 61.4 µM.
`CC1=CC[C@H](C)C(C)(C)C1/C=C/C(C)=C/CC[C@@]1(CO)[C@H](CCCO)/C(=C(/C)C=O)CC[C@]1(C)O` (stereo not given in full) gave a TGI [49] of 39.9 µM, a TGI [1] of 16.9 µM and a TGI [2] of 7.79 µM. It also gave a TGI [3] of 3.51 µM, a TGI [4] of 13.5 µM and a TGI [5] of 12.1 µM. For the same compound, the TGI [50] was 24.3 µM, the TGI [52] was 20.8 µM and the TGI [7] was 27.5 µM. For the same compound, the TGI [8] was 13.9 µM, the TGI [9] was 19.1 µM and the TGI [11] was 38.2 µM. It also gave a TGI [12] of 28.9 µM, a TGI [13] of 20.5 µM and a TGI [14] of 14.4 µM. The TGI [15] was 15.3 µM, the TGI [16] was 28.1 µM and the TGI [17] was 23 µM. For the same compound, the TGI [56] was 53.3 µM, the TGI [57] was 24.7 µM and the TGI [20] was 19.9 µM. The TGI [21] was 4.26 µM, the TGI [22] was 23.7 µM and the TGI [23] was 4.41 µM. For the same compound, the TGI [24] was 12.5 µM, the TGI [25] was 12.3 µM and the TGI [58] was 12.9 µM. It also gave a TGI [26] of 15.7 µM, a TGI [27] of 8.23 µM and a TGI [28] of 28.8 µM. It also gave a TGI [29] of 10.5 µM, a TGI [30] of 32.9 µM and a TGI [31] of 21.2 µM. For the same compound, the TGI [34] was 24.9 µM, the TGI [36] was 20.2 µM and the TGI [37] was 4.48 µM. It also gave a TGI [38] of 6.21 µM, a TGI [39] of 11.3 µM and a TGI [40] of 15.1 µM. It also gave a TGI [41] of 25.1 µM, a TGI [42] of 11.8 µM and a TGI [43] of 13.9 µM. For the same compound, the TGI [44] was 29.5 µM, the TGI [45] was 20.4 µM and the TGI [46] was 21.4 µM. For the same compound, the TGI [47] was 9.63 µM and the TGI [48] was 16.6 µM.
Compound `O=C(Nc1nccs1)c1cc(C2=CC=CC([N+](=O)[O-])C=C2)nc(=S)[nH]1` (stereo not given) has a TGI [49] greater than 100 µM, a TGI [1] greater than 100 µM and a TGI [2] greater than 100 µM. For the same compound, the TGI [3] was greater than 100 µM, the TGI [4] was greater than 100 µM and the TGI [5] was greater than 100 µM. The TGI [50] was greater than 100 µM, the TGI [6] was greater than 100 µM and the TGI [52] was greater than 100 µM. The TGI [7] was greater than 100 µM, the TGI [53] was greater than 100 µM and the TGI [8] was greater than 100 µM. For the same compound, the TGI [9] was greater than 100 µM, the TGI [10] was greater than 100 µM and the TGI [11] was greater than 100 µM. For the same compound, the TGI [54] was greater than 100 µM, the TGI [12] was greater than 100 µM and the TGI [55] was greater than 100 µM. The TGI [13] was greater than 100 µM, the TGI [14] was greater than 100 µM and the TGI [15] was greater than 100 µM. It also gave a TGI [16] greater than 100 µM, a TGI [17] greater than 100 µM and a TGI [56] greater than 100 µM. It also gave a TGI [18] greater than 100 µM, a TGI [57] greater than 100 µM and a TGI [19] greater than 100 µM. For the same compound, the TGI [21] was greater than 100 µM, the TGI [22] was greater than 100 µM and the TGI [23] was greater than 100 µM. It also gave a TGI [24] greater than 100 µM, a TGI [25] greater than 100 µM and a TGI [58] greater than 100 µM. For the same compound, the TGI [26] was greater than 100 µM, the TGI [27] was greater than 100 µM and the TGI [28] was greater than 100 µM. The TGI [29] was greater than 100 µM, the TGI [30] was greater than 100 µM and the TGI [31] was greater than 100 µM. The TGI [32] was greater than 100 µM, the TGI [33] was greater than 100 µM and the TGI [59] was greater than 100 µM. For the same compound, the TGI [34] was greater than 100 µM, the TGI [36] was greater than 100 µM and the TGI [37] was greater than 100 µM. The TGI [38] was greater than 100 µM, the TGI [39] was greater than 100 µM and the TGI [41] was greater than 100 µM. It also gave a TGI [42] greater than 100 µM, a TGI [43] greater than 100 µM and a TGI [44] greater than 100 µM. The TGI [45] was greater than 100 µM, the TGI [46] was greater than 100 µM and the TGI [47] was greater than 100 µM. For the same compound, the TGI [48] was greater than 100 µM.
